In this experiment the target is T1, Human CaV2.2 channels (Homo sapiens, UniProt Q00975).
T1 construct: expressed in transfected cells
Briefly: Fluorescent assay for CaV2.2 channels using potassium depolarization to induce channel opening (FLIPR, Fluo-4). The note with it: 3 μM test compound, 30 mM KCl, HEK293 cells stably expressing human CaV2.2; read-out: %-Inhib (CaV2.2) @3 μM @30 mM KCl. The experiment is classed as cell-based. The method in brief: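 Channel block was read as the baseline-normalized peak Ca²⁺ signal (Fluo-4, 480/535 nm) after a high-KCl depolarizing addition (210 mM KCl buffer). Beforehand, compound sat 15 min at 25 °C on HEK293 cells carrying human CaV2.2, α2δ/β subunits and Kir2.3, in pH 7.4 buffer with 30 mM KCl.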

The structures appear in SMILES notation.

T1 sequence (Q00975 whole entry): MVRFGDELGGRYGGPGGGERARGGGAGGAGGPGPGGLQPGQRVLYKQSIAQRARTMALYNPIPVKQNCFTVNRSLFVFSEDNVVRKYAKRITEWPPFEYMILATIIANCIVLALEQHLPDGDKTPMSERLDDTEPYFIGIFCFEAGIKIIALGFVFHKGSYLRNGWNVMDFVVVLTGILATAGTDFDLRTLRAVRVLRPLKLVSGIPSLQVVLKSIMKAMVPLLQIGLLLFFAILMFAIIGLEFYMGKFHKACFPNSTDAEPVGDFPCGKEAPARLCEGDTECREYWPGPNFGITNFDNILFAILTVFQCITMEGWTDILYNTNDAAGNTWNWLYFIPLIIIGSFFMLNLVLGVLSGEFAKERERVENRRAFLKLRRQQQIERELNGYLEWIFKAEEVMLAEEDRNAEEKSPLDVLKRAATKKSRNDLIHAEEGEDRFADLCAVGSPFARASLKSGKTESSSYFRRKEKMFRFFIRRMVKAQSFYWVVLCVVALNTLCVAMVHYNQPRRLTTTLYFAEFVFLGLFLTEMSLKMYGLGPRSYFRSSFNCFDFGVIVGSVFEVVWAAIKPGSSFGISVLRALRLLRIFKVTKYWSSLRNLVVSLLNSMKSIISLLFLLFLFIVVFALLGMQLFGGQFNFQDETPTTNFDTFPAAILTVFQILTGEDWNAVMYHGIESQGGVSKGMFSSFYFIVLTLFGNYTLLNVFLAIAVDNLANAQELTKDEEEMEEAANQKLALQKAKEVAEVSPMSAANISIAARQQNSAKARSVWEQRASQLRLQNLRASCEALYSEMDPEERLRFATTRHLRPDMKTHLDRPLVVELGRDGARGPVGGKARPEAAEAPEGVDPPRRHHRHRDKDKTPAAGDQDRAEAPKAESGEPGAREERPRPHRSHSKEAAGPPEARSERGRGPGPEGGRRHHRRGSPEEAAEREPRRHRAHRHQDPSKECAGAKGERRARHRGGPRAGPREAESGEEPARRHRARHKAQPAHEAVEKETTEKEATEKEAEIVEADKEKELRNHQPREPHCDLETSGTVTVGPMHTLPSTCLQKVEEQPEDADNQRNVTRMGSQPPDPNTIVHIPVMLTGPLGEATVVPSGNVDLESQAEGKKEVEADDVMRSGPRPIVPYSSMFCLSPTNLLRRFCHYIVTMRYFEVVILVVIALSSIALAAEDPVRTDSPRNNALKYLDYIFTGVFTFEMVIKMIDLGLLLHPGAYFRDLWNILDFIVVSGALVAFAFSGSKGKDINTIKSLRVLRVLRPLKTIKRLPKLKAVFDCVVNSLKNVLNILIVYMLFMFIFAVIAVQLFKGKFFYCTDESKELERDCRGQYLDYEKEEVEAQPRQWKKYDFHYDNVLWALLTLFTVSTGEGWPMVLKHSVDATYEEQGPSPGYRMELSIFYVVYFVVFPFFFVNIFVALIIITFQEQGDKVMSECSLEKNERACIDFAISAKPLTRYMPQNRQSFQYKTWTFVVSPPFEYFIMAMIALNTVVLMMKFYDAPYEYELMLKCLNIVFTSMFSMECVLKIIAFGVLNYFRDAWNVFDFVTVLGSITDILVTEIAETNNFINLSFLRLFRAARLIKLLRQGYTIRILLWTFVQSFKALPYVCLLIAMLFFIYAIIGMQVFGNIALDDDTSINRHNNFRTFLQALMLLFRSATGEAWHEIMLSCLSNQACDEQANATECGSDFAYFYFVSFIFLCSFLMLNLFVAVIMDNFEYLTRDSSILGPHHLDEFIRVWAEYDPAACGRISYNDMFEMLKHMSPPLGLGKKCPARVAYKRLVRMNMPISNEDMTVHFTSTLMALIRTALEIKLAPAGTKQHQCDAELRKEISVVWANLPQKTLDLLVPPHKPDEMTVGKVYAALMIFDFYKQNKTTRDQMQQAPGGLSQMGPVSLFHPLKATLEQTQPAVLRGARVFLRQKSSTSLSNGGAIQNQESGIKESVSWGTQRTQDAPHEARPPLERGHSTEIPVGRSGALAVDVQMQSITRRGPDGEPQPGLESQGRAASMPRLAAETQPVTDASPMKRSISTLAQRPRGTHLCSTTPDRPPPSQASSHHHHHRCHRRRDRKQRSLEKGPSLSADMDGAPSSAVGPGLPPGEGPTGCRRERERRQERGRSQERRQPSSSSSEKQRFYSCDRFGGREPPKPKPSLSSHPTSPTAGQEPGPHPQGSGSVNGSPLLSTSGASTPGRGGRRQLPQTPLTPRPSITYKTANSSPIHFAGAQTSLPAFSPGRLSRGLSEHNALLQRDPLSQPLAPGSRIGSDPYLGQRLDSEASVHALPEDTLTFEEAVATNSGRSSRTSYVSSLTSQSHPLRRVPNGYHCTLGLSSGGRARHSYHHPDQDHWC
T1 sequence (P54289 25-1103, further chain): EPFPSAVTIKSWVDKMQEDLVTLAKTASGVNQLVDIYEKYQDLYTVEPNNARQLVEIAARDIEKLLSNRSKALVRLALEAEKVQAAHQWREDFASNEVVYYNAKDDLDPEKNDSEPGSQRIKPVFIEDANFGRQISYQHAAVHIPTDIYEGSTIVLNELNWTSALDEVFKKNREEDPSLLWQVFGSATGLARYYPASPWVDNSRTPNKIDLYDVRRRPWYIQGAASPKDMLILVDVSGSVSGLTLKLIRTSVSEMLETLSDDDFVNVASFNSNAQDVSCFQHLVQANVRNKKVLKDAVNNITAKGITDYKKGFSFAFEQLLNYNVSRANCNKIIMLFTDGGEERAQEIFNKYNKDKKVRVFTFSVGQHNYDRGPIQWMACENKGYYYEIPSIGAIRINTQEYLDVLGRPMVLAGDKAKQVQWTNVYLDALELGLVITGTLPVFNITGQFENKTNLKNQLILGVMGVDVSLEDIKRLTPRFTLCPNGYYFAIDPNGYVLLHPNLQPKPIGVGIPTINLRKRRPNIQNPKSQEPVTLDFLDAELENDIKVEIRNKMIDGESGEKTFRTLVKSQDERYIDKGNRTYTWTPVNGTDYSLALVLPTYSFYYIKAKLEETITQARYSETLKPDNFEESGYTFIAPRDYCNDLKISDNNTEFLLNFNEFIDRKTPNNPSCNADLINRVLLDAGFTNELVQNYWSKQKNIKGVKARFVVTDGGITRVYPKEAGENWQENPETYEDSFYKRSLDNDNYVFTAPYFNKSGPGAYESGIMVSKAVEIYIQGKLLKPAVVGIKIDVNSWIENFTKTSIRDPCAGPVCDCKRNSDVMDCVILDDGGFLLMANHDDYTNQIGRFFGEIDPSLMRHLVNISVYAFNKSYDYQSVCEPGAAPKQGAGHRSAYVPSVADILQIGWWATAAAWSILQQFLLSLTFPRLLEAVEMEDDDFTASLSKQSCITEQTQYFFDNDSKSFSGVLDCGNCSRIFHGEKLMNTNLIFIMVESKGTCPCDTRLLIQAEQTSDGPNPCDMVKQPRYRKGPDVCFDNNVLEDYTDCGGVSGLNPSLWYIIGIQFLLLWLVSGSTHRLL
T1 sequence (P54284 whole entry, further chain): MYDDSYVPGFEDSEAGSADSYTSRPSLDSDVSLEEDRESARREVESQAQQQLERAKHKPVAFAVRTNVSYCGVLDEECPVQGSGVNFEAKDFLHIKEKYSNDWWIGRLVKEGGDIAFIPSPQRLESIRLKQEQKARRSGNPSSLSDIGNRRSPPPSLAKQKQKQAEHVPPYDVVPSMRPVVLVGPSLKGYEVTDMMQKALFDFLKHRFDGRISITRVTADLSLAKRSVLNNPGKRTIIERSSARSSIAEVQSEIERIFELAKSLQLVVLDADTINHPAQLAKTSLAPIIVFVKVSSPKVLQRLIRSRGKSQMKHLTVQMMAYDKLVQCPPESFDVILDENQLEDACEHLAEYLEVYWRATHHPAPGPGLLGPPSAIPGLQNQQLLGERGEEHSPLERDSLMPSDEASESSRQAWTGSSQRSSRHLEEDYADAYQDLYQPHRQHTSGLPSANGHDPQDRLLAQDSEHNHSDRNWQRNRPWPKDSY

In the case of `Cc1c(-c2ccc(Cl)cc2)c(C(=O)N(C)CC(C)(C)C)n(Cc2cccc(Cl)c2)c1C(F)(F)F` [SC-53, 3-(4-Chlorophenyl)-1-[(3-chlorophenyl)-methyl]-N-(2,2-dimethyl-propyl)-N,4-dimethyl-5-(trifluoromethyl)-1H-pyrrole-2-carboxylic acid amide], the inhibition at 3 µM lay in the range of 75 to 95%.

Take `Cc1c(-c2ccc(Cl)cc2)c(C(=O)N(C)C2(CO)CC2)n(Cc2ccccc2)c1C(F)(F)F` [SC-48, 1-Benzyl-3-(4-chlorophenyl)-N-[1-(hydroxymethyl)-cyclopropyl]-N,4-dimethyl-5-(trifluoromethyl)-1H-pyrrole-2-carboxylic acid amide]: the inhibition at 3 µM is above 95%.

Regarding `CN(CC(C)(C)O)C(=O)c1c(-c2ccc(Cl)cc2F)cc(C(F)(F)F)n1Cc1ccccc1` [SC-87, 1-Benzyl-3-(4-chloro-2-fluoro-phenyl)-N-(2-hydroxy-2-methyl-propyl)-N-methyl-5-(trifluoromethyl)-1H-pyrrole-2-carboxylic acid amide], the inhibition at 3 µM was above 95%.

For `Cc1c(-c2ccc(F)cc2)c(C(=O)N(C)C2CCOCC2)n(Cc2ccccc2)c1C(F)(F)F` [SC-220, 1-Benzyl-3-(4-fluorophenyl)-N,4-dimethyl-N-tetrahydro-pyran-4-yl-5-(trifluoromethyl)-1H-pyrrole-2-carboxylic acid amide], the inhibition at 3 µM was above 95%.

`CCc1c(-c2ccc(Cl)cc2)c(C(=O)N(C)CC(C)(C)C)n(Cc2ccccc2)c1C(F)(F)F` [SC-119, 1-Benzyl-3-(4-chlorophenyl)-N-(2,2-dimethyl-propyl)-4-ethyl-N-methyl-5-(trifluoromethyl)-1H-pyrrole-2-carboxylic acid amide]: the inhibition at 3 µM lay in the range of 75 to 95%.

As to `Cc1c(-c2ccc(Cl)cc2F)c(C(=O)N2CCOCC2)n(Cc2ccccc2)c1C(F)(F)F` [SC-62, [1-Benzyl-3-(4-chloro-2-fluoro-phenyl)-4-methyl-5-(trifluoromethyl)-1H-pyrrol-2-yl]-morpholin-4-yl-methanone], the inhibition at 3 µM was above 95%.

`O=C(c1c(-c2ccc(Cl)cc2)cc(C(F)(F)F)n1Cc1cccc(Cl)c1)N1CCOCC1` [SC-74, [3-(4-Chlorophenyl)-1-[(3-chlorophenyl)-methyl]-5-(trifluoromethyl)-1H-pyrrol-2-yl]-morpholin-4-yl-methanone]: the inhibition at 3 µM was above 95%.

On to `Cc1c(-c2ccc(Cl)cc2)c(C(=O)N2CCN(C)C(=O)C2)n(Cc2ccccc2)c1C(F)(F)F` [SC-09, 4-[1-Benzyl-3-(4-chlorophenyl)-4-methyl-5-(trifluoromethyl)-1H-pyrrole-2-carbonyl]-1-methyl-piperazin-2-one], for which the inhibition at 3 µM was 75 to 95%.

For `CN(CC1CCCO1)C(=O)c1c(-c2ccc(Cl)cc2)cc(C(F)(F)F)n1Cc1ccccc1` (stereo not shown) [SC-197, 1-Benzyl-3-(4-chlorophenyl)-N-methyl-N-(tetrahydro-furan-2-yl-methyl)-5-(trifluoromethyl)-1H-pyrrole-2-carboxylic acid amide], the inhibition at 3 µM was above 95%.

As for `Cc1c(-c2ccc(Cl)cc2)c(C(=O)N(C)CCC(C)(C)O)n(Cc2ccccc2)c1C(F)(F)F` [SC-113, 1-Benzyl-3-(4-chlorophenyl)-N-(3-hydroxy-3-methyl-butyl)-N,4-dimethyl-5-(trifluoromethyl)-1H-pyrrole-2-carboxylic acid amide], the inhibition at 3 µM was above 95%.

`CCN(CCS(C)(=O)=O)C(=O)c1c(-c2ccc(Cl)cc2)cc(C(F)(F)F)n1Cc1ccccc1` [SC-190, 1-Benzyl-3-(4-chlorophenyl)-N-ethyl-N-(2-methylsulfonyl-ethyl)-5-(trifluoromethyl)-1H-pyrrole-2-carboxylic acid amide]: the inhibition at 3 µM was above 95%.

Consider `CN(CC(C)(C)C)C(=O)c1c(-c2ccc(Cl)cc2)c(C2CC2)c(C(F)(F)F)n1Cc1ccccc1` [SC-120, 1-Benzyl-3-(4-chlorophenyl)-4-cyclopropyl-N-(2,2-dimethyl-propyl)-N-methyl-5-(trifluoromethyl)-1H-pyrrole-2-carboxylic acid amide], for which the inhibition at 3 µM was 75 to 95%.

Consider `CCOC(=O)C1(N(C)C(=O)c2c(-c3ccc(Cl)cc3)c(C)c(C(F)(F)F)n2Cc2ccccc2)CC1` [SC-52, 1[[1-Benzyl-3-(4-chlorophenyl)-4-methyl-5-(trifluoromethyl)-1H-pyrrole-2-carbonyl]-methyl-amino]-cyclopropane-1-carboxylic acid ethyl ester], for which the inhibition at 3 µM is above 95%.

For `Cc1nnc(CN(C)C(=O)c2c(-c3ccc(Cl)cc3)cc(C(F)(F)F)n2Cc2ccccc2)o1` [SC-206, 1-Benzyl-3-(4-chlorophenyl)-N-methyl-N-[(5-methyl-[1,3,4]oxadiazol-2-yl)-methyl]-5-(trifluoromethyl)-1H-pyrrole-2-carboxylic acid amide], the inhibition at 3 µM was 75 to 95%.

`Cc1c(-c2ccc(OC(F)(F)F)cc2)c(C(=O)N(C)CC(C)(C)CO)n(Cc2ccccc2)c1C(F)(F)F` [SC-235, 1-Benzyl-N-(3-hydroxy-2,2-dimethyl-propyl)-N,4-dimethyl-5-(trifluoromethyl)-3-[4-(trifluoromethyloxy)-phenyl]-1H-pyrrole-2-carboxylic acid amide]: the inhibition at 3 µM fell in the range of 75 to 95%.

For `Cc1c(-c2ccc(Cl)cc2)c(C(=O)N(C)CC(C)(C)O)n(Cc2cccc(Cl)c2)c1C(F)(F)F` [SC-57, 3-(4-Chlorophenyl)-1-[(3-chlorophenyl)-methyl]-N-(2-hydroxy-2-methyl-propyl)-N,4-dimethyl-5-(trifluoromethyl)-1H-pyrrole-2-carboxylic acid amide], the inhibition at 3 µM is above 95%.

Consider `CN(CC(C)(C)C)C(=O)c1c(-c2ccc(Cl)cc2)cc(C(F)(F)F)n1Cc1cccc(S(C)(=O)=O)c1` [SC-266, 3-(4-Chlorophenyl)-N-(2,2-dimethyl-propyl)-N-methyl-1-[(3-methylsulfonyl-phenyl)-methyl]-5-(trifluoromethyl)-1H-pyrrole-2-carboxylic acid amide], for which the inhibition at 3 µM was 75 to 95%.

With `Cc1c(-c2ccc(Cl)cc2F)c(C(=O)N2CCS(=O)(=O)C(C)(C)C2)n(Cc2ccccc2)c1C(F)(F)F` [SC-170, [1-Benzyl-3-(4-chloro-2-fluoro-phenyl)-4-methyl-5-(trifluoromethyl)-1H-pyrrol-2-yl]-(2,2-dimethyl-1,1-dioxo-[1,4]thiazinan-4-yl)-methanone], the inhibition at 3 µM is above 95%.

For `Cc1c(-c2ccc(Cl)c(F)c2)c(C(=O)N2CCOC(C)(C)C2)n(Cc2ccccc2)c1C(F)(F)F` [SC-249, [1-Benzyl-3-(4-chloro-3-fluoro-phenyl)-4-methyl-5-(trifluoromethyl)-1H-pyrrol-2-yl]-(2,2-dimethyl-morpholin-4-yl)-methanone], the inhibition at 3 µM fell in the range of 75 to 95%.

For `Cc1c(-c2ccc(F)cc2)c(C(=O)N(C)CC(C)(C)CO)n(Cc2ccccc2)c1C(F)(F)F` [SC-218, 1-Benzyl-3-(4-fluorophenyl)-N-(3-hydroxy-2,2-dimethyl-propyl)-N,4-dimethyl-5-(trifluoromethyl)-1H-pyrrole-2-carboxylic acid amide], the inhibition at 3 µM was above 95%.

Turning to `Cc1c(-c2ccc(Cl)cc2F)c(C(=O)N2CCNC(=O)C2)n(Cc2ccccc2)c1C(F)(F)F` [SC-61, 4-[1-Benzyl-3-(4-chloro-2-fluoro-phenyl)-4-methyl-5-(trifluoromethyl)-1H-pyrrole-2-carbonyl]-piperazin-2-one], the inhibition at 3 µM was above 95%.

For `Cc1c(-c2ccc(Cl)cc2)c(C(=O)N2CCC(O)C2)n(Cc2ccccc2)c1C(F)(F)F` (stereo not shown) [SC-23, [1-Benzyl-3-(4-chlorophenyl)-4-methyl-5-(trifluoromethyl)-1H-pyrrol-2-yl]-(3-hydroxy-pyrrolidin-1-yl)-methanone], the inhibition at 3 µM lay in the range of 75 to 95%.

In the case of `Cc1c(-c2ccc(Cl)cc2)c(C(=O)N(C)CC2CCOC2)n(Cc2ccccc2)c1C(F)(F)F` (stereo not shown) [SC-121, 1-Benzyl-3-(4-chlorophenyl)-N,4-dimethyl-N-(tetrahydro-furan-3-yl-methyl)-5-(trifluoromethyl)-1H-pyrrole-2-carboxylic acid amide], the inhibition at 3 µM was above 95%.

For `Cc1c(-c2ccc(Cl)cc2F)c(C(=O)N(C)CC2CCOC2)n(Cc2ccccc2)c1C(F)(F)F` (stereo not shown) [SC-167, 1-Benzyl-3-(4-chloro-2-fluoro-phenyl)-N,4-dimethyl-N-(tetrahydro-furan-3-yl-methyl)-5-(trifluoromethyl)-1H-pyrrole-2-carboxylic acid amide], the inhibition at 3 µM is above 95%.

Take `Cc1c(-c2ccc(Cl)c(F)c2)c(C(=O)N(C)C2CC2)n(Cc2ccccc2)c1C(F)(F)F` [SC-246, 1-Benzyl-3-(4-chloro-3-fluoro-phenyl)-N-cyclopropyl-N,4-dimethyl-5-(trifluoromethyl)-1H-pyrrole-2-carboxylic acid amide]: the inhibition at 3 µM lay in the range of 75 to 95%.

Regarding `Cc1c(-c2ccc(Cl)cc2)c(C(=O)N(C)CC(C)(C)O)n(Cc2ccccc2)c1C(F)(F)F` [SC-54, 1-Benzyl-3-(4-chlorophenyl)-N-(2-hydroxy-2-methyl-propyl)-N,4-dimethyl-5-(trifluoromethyl)-1H-pyrrole-2-carboxylic acid amide], the inhibition at 3 µM was above 95%.

For `Cc1c(-c2ccc(Cl)cc2)c(C(=O)N2CCC(S(C)(=O)=O)C2)n(Cc2ccccc2)c1C(F)(F)F` (stereo not shown) [SC-123, [1-Benzyl-3-(4-chlorophenyl)-4-methyl-5-(trifluoromethyl)-1H-pyrrol-2-yl]-(3-methylsulfonyl-pyrrolidin-1-yl)-methanone], the inhibition at 3 µM was above 95%.

Consider `Cc1c(-c2ccc(F)c(Cl)c2)c(C(=O)N(C)C2CCOCC2)n(Cc2ccccc2)c1C(F)(F)F` [SC-253, 1-Benzyl-3-(3-chloro-4-fluoro-phenyl)-N,4-dimethyl-N-tetrahydro-pyran-4-yl-5-(trifluoromethyl)-1H-pyrrole-2-carboxylic acid amide], for which the inhibition at 3 µM is above 95%.
